{
  "source": "patent US11478486B2",
  "about": "“Association of actives for treating prostate cancer” (priority 2017, dated 2022)",
  "type_in_all_cases": "cell-based, human",
  "key": {"[1]": {"test_system": "AR-V7", "assay": "CELIGO microscope observation of AR-V7 expression", "conditions": "22Rv1 cells, 72 hours; enzalutamide 30.0 μM, SB202190 5.0 μM, LY2228820 2.5 μM; control 30.0%", "description": "The expression of AR-V7 was observed by the CELIGO microscope in 22Rv1 cells after 72 hours of culture."}, "[2]": {"test_system": "AR-V7", "assay": "western blot of AR and AR-V7 expression in 22Rv1 cells", "conditions": "22Rv1, 72 hours; abiraterone 7.5 μM, enzalutamide 7.5 μM, SB202190 (504)", "description": "Western blot analysis was performed, detecting the wild-type form of AR and the AR-V7 form as well (FIG. 7). In this way the inventors tested the involvement of the p38 inhibitor in abiraterone and enzalutamide resistance, the AR-V7."}, "[3]": {"test_system": "p38 (MAPK14)", "assay": "p38 activation, western blot with anti-phospho-p38 antibody", "conditions": "22Rv1 and LNCaP prostate cancer cells, 24 hours", "description": "FIG. 1: Abiraterone induces p38 activation. Prostate cancer cells LNCaP (Androgen Receptor expressing cells) were treated with abiraterone (30 μM). Prostate cancer cells 22Rv1 (Androgen Receptor and AR-V7 expressing cells) were treated with 0.1, 1.0, 10.0 and 30.0 μM abiraterone during 24 hours. Protein were extracted and subjected to western blot analysis using anti-phospho-p38, anti-p38 and anti-tubulin antibodies. (Example 1)\n[…]. A: LNCaP human prostate cells (Androgen Receptor expressing cells) were treated by enzalutamide (35.0 μM) during 24 h00. Phosphorylation p38 was assessed. Tubuline and non-phosphorylated proteins were stained as a loading control. B: same experiment with the Androgen Receptor and AR-V7 expressing 22Rv1 human prostate cancer cells (Example 1)."}},
  "data": [
    {"smiles": "CC(C)(C)Cn1c(N)nc2ccc(-c3[nH]c(C(C)(C)C)nc3-c3ccc(F)cc3)nc21", "note": "[LY2228820]", "values": [
      {"measurement": "% of cells with ARv7", "setting": "[1]", "value": 34.0, "unit": "%"}
    ]},
    {"smiles": "Oc1ccc(-c2nc(-c3ccncc3)c(-c3ccc(F)cc3)[nH]2)cc1", "note": "[SB202190]", "values": [
      {"measurement": "AR-V7 expression", "setting": "[2]", "value": "inhibits AR-V7 expression"},
      {"measurement": "% of cells with ARv7", "setting": "[1]", "value": 28.0, "unit": "%"}
    ]},
    {"smiles": "CNC(=O)c1ccc(N2C(=S)N(c3ccc(C#N)c(C(F)(F)F)c3)C(=O)C2(C)C)cc1F", "note": "[enzalutamide]", "values": [
      {"measurement": "activation of MAPK p38 (phosphorylated form of p38)", "setting": "[3]", "value": "activates the MAPK p38"}
    ]}
  ]
}
